Test results from patent publication US11464864B2, “Drug-bound compound and use thereof” (priority 2018, dated 2022).
Read-outs that look alike come from different tables or passages of the source.

Tests used:
[1] = system: HeLa cells
Method: (§1) HeLa cells (1×10^5 cells per well) were seeded in a 35 mm cover glass bottom dish (SPL Life Sciences Co., Ltd., Korea) and incubated for 24 hours. […] After incubation at 37° C. for 30 minutes, the cells were washed three times with cold PBS to remove non-internalized samples. Live HeLa cells were examined with a confocal laser scanning microscope (Olympus Fluoview FV1000) equipped with an oil immersion lens (NA 1.30, 40×). […] Each analysis was repeated three times.

[2] = system: HeLa cells; assay: Identification of cell uptake by confocal microscopy; format: cell-based; conditions: 10 µM compound, serum-free DMEM, 37° C., 30 minutes
Method: (§2) High glucose Dulbecco's modified Eagle's medium (DMEM), Roswell Park Memorial Institute (RPMI) 1640, Dulbecco's phosphate buffered saline, pH 7.4 (DPBS), fetal bovine serum (FBS), and trypsin/EDTA were obtained from Gibco™ and Thermo Fischer Scientific. Mitotracker and Lysotracker were obtained from Invitrogen Inc. (USA). 3-(4,5-Dimethyl-2-thiazolyl)-2,5-diphenyl-2H-tetrazolium bromide (MTT) was purchased from Sigma-Aldrich Korea Ltd. All solutions were prepared using Milli-Q purified water […]. HeLa cells were cultured in 10% (v/v) FBS containing DMEM and penicillin at 37° C. under a wet 5% CO2 environment. For SW480 cells and HT-29 cells, RMPI 1640 medium was used.
as §1

[3] = system: HT-29 cells; assay: Measurement of cytotoxicity, MTT assay; format: cell-based; conditions: Homo sapiens, 48 hours incubation, read-out: IC50 (cell viability, MTT)
Method: as §2
(§3) SW480 cells and HT-29 cells (4.5×10^3 cells per well) were seeded in a 96-well plate. After 24 hours, the medium was replaced with serum-free RMPT 1640. […] The treated cells were incubated for 48 hours, washed with cold PBS, and then exposed to MTT in the medium for 4 hours. The medium was replaced with DMSO, and the dissolved formazan dye was quantified by measuring the absorbance at 500 nm. Non-treated cells were measured in the same manner as a control.

[4] = system: SW480 cells; assay: Measurement of cytotoxicity, MTT assay; format: cell-based; conditions: Homo sapiens, 48 hours incubation, read-out: IC50 (cell viability, MTT)
Method: as §2, §3

Molecule: 1-O-[20-O—(N-succinyl-6-aminohexanoyl)camptothecin]-2,3,4,5-tetra-O—(N-{bis-[3-N′,N″-bis-(tert-butoxycarbonyl)-guanidino)-propyl]}-6-aminohexanoyl)-6-O-[6-(fluoresceinyl-5-thioureido)-hexanoyl]-D-sorbitol⋅8HCl [compound (10)]
- Intracellular localization ([1]; HeLa cells, 10 μM): intracellular localization for mitochondria
- Intracellular localization ([1]; HeLa cells, 20 μM, incubated 30 minutes): fluorescence exists even inside the nucleus
- Co-localization with Lysotracker (lysosomal marker) ([1]; HeLa cells, Lysotracker 200 nM): co-localization was not observed
- Co-localization with Mitotracker (mitochondrial marker) ([1]; live HeLa cells, 10 uM for 30 minutes, then Mitotracker 100 nM for 30 minutes): Co-localization was markedly observed
- Cell uptake (intracellular FITC fluorescence in live cells) [2]: strong green fluorescence appears mainly in the cytoplasm

Molecule: 20-O-[6-(fluoresceinyl-5-thioureido)-hexanoyl)camptothecin [compound (4)]
- Cell uptake (intracellular FITC fluorescence in live cells) [2]: intracellular fluorescence was not observed

Molecule: CC[C@@]1(O)C(=O)OCc2c1cc1n(c2=O)Cc2cc3ccccc3nc2-1 [CPT, Camptothecin]
- IC50 [3]: 0.99 µM
- IC50 [4]: 1.53 µM
